Here are results for 4 molecules from article PMC7403315, “Cyclic peptide FXII inhibitor provides safe anticoagulation in a thrombosis model and in artificial lungs” (Nature Communications, 2020).

Where “and” joins values, the source holds several entries; their conditions need not be identical. Equal entries are not always repeated. Where two headings read alike, the source gives them in different places. Starred links: 1 amine or outer side, 2 acyl side, 3 side chain; linkers in the order of their positions; H or OH if unused. Positions of bridges follow the written chain, without caps; N, C: chain ends. Non-standard residues stand in square brackets, D forms with d. Residues, ends and D or L forms follow the SMILES beside them. TATA = O=C(CC[*:1])N1CN(C(=O)CC[*:2])CN(C(=O)CC[*:3])C1; Phe(4-F) = N[C@@H](Cc1ccc(F)cc1)C(=O)O; β3hR = N=C(N)NCCC[C@H](N)CC(=O)O

For one assay, the target named is T1, human β-FXIIa (Homo sapiens, UniProt P00748).
T1 construct: human β-FXIIa (Molecular Innovations cat #); purchased Molecular Innovations HFXIIAB; host or cells: human blood
As to the kind of experiment: FXIIa protease inhibition assay with fluorogenic substrate Boc-Gln-Gly-Arg-AMC. The class given is biochemical. As to the method: (§1) In order to test the inhibitory activity of peptides without prior purification, we developed the following method. […] After solid-phase peptide synthesis, cleavage, and ether precipitation, the peptides were chemically cyclized and their Ki values were determined in a FXIIa activity assay using a fluorogenic substrate.
(§2) Protease inhibition assays
(§3) The inhibitory activity of peptides was determined by measuring the residual protease activity with a fluorogenic substrate. The assay was performed in buffer containing 10 mM Tris-Cl, pH […]
(§4) 1% (v/v) DMSO in a volume of 150 µl. FXIIa activity was measured with the fluorogenic substrate Boc-Gln-Gly-Arg-AMC (Bachem) at a final concentration of 50 µM. Mouse α-FXIIa (Molecular Innovations cat # MFXIIA) and human β-FXIIa (Molecular Innovations cat # HFXIIAB) were used at final concentrations of 0.4 nM. The reaction was pipetted as follows: 50 µl of bicyclic peptide in assay buffer were added to 50 µl of FXIIa in assay buffer and incubated for 10 minutes at 25°C before 50 µl of 150 µM fluorogenic substrate in assay buffer were added to measure the residual protease activity with an Infinite M200Pro fluorescence plate reader (excitation at 368 nm, emission at 467 nm; Tecan) for a period of 30 minutes with a read every minute at 25°C. The Tecan software i-control (version 1.1) was used for data analysis. Stock solutions of 1 mM bicyclic peptide were prepared by either dissolving the unpurified cyclization reaction with water or by dissolving purified and lyophilized peptide in water. The bicyclic peptides were serially diluted two-fold using assay buffer. Sigmoidal curves were fitted to the data using the following dose response equation (1), wherein x = peptide concentration, y = % protease activity, and p = Hill slope. IC50 values were derived from the fitted curve.
(§5) The inhibition constants (Ki) were calculated according to the equation of Cheng and Prusoff, Ki = IC50/(1+([S]0/Km), wherein IC50 is the functional strength of the inhibitor, [S]0 is the total substrate concentration, and Km is the Michaelis-Menten constant. […]
(§6) the substrate Boc-Gln-Gly-Arg-AMC. […]

The next assay deals with T2, Mouse α-FXIIa (Mus musculus, UniProt Q80YC5).
T2 construct: Mouse α-FXIIa; purchased Molecular Innovations MFXIIA
T2 sequence (Q80YC5 355-597 limits assumed): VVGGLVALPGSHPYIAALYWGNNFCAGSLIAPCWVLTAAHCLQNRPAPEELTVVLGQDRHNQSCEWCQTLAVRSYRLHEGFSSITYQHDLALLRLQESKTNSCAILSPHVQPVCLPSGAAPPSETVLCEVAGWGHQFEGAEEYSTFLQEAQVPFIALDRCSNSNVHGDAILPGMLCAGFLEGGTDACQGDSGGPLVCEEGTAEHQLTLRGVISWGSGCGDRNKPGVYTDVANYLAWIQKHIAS
T2 sequence (Q80YC5 20-354 limits assumed): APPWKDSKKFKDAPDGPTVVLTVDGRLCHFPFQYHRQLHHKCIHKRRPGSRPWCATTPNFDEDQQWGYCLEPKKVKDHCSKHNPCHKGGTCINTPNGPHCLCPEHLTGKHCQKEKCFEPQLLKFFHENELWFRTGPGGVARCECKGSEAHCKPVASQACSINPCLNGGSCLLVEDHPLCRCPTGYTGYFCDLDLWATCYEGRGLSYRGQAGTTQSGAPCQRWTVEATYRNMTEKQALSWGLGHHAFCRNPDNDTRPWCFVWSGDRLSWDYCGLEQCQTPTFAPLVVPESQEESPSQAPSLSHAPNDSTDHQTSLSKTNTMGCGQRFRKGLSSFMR
Described as above. The class given is biochemical. To be noted: purified peptide without coumarin label; read-out: Ki mouse FXIIa. As to the method: as §1, §2, §3, §4, §5, §6

The mark [1] stands for this setting: purified peptide without coumarin label, read-out: Ki human FXIIa.

T1 sequence (P00748 373-615 limits assumed, other chains not shown): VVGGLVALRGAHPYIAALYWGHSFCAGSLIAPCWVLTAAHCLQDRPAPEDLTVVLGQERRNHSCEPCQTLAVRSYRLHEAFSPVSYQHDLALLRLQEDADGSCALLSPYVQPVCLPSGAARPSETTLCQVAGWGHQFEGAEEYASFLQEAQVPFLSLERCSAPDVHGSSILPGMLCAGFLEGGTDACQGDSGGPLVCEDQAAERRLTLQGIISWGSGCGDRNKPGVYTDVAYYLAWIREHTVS

With `CC(C)C[C@@H]1NC(=O)[C@H](CCC(N)=O)NC(=O)[C@H](CCCNC(=N)N)NC(=O)[C@@H]2CSCCC(=O)N3CN(CN(C3)C(=O)CCSC[C@H](NC(=O)[C@@H](N)CCCNC(=N)N)C(=O)N[C@@H](Cc3ccccc3)C(=O)N[C@@H](CCCNC(=N)N)C(=O)N[C@@H](CC(C)C)C(=O)N3CCC[C@H]3C(=O)N2)C(=O)CCSC[C@@H](C(=O)N[C@@H](CCCNC(=N)N)C(N)=O)NC(=O)C[C@H](CCCNC(=N)N)NC1=O` [FXII700], the “Residual activity of human FXIIa” value on human β-FXIIa (inhibitor 0.0976562 nM, 97.66 pM) is 91.4189%; at human β-FXIIa (inhibitor 0.195312 nM, 0.000195312 µM), 81.1824%; at human β-FXIIa (inhibitor 0.390625 nM, 0.000390625 µM), 72.286%; at human β-FXIIa (inhibitor 0.78125 nM, 0.00078125 µM) it was 58.8964%; on human β-FXIIa (inhibitor 1.5625 nM, 0.0015625 µM), 43.9302%; on human β-FXIIa (inhibitor 3.125 nM, 0.003125 µM), 29.5158% and 36.4925%. Besides, the “Residual activity of human FXIIa” value on human β-FXIIa (inhibitor 6.25 nM, 0.00625 µM) is 18.0743% and 21.4703%; at human β-FXIIa (inhibitor 12.5 nM, 0.0125 µM), 10.9718% and 11.488%; at human β-FXIIa (inhibitor 50 nM, 0.05 µM), 4.39% and 3.29%; on human β-FXIIa (inhibitor 100 nM, 0.1 µM) it was 1.025% and 3.134% and 1.703%. On human β-FXIIa (inhibitor 0.0976562 nM, read-out: Residual activity of human FXIIa), the remaining activity at 97.66 pM was 93.2%. In addition, the remaining activity at 0.000195312 µM on human β-FXIIa (inhibitor 0.195312 nM, read-out: Residual activity of human FXIIa) was 90.3%. The remaining activity at 0.000390625 µM at human β-FXIIa (inhibitor 0.390625 nM, read-out: Residual activity of human FXIIa) amounted to 82.1%. For the same molecule, on human β-FXIIa (inhibitor 0.78125 nM, read-out: Residual activity of human FXIIa), the remaining activity at 0.00078125 µM turned out to be 69.4%. The remaining activity at 0.0015625 µM on human β-FXIIa (inhibitor 1.5625 nM, read-out: Residual activity of human FXIIa) was 53.9%. In addition, at human β-FXIIa (inhibitor 3.125 nM, read-out: Residual activity of human FXIIa), the remaining activity at 0.003125 µM worked out at 34.3%. The remaining activity at 0.00625 µM on human β-FXIIa (inhibitor 6.25 nM, read-out: Residual activity of human FXIIa) is 20.1%. Besides, the remaining activity at 0.0125 µM at human β-FXIIa (inhibitor 12.5 nM, read-out: Residual activity of human FXIIa) was found to be 10.6%. In addition, the remaining activity at […] on human β-FXIIa (inhibitor 25 nM, read-out: Residual activity of human FXIIa) was 4.82%. The remaining activity at 0.05 µM on human β-FXIIa (inhibitor 50 nM, read-out: Residual activity of human FXIIa) is 2.6%. In addition, the remaining activity at 0.2 µM on human β-FXIIa (inhibitor 200 nM, read-out: Residual activity of human FXIIa) amounted to 0.731%. The remaining activity at 0.4 µM at human β-FXIIa (inhibitor 400 nM, read-out: Residual activity of human FXIIa) stood at 0.3%. For the same molecule, the Ki on human β-FXIIa (setting [1]) worked out at 1.5 ± 0.1 nM.
As to `CC(C)C[C@@H]1NC(=O)[C@H](CCC(N)=O)NC(=O)[C@H](Cc2c[nH]cn2)NC(=O)[C@@H]2CSCCC(=O)N3CN(CN(C3)C(=O)CCSC[C@H](NC(=O)[C@@H](CO)NC(=O)[C@H](N)CCCNC(=N)N)C(=O)N[C@@H](Cc3ccc(F)cc3)C(=O)N[C@@H](CCCNC(=N)N)C(=O)N[C@@H](CC(C)C)C(=O)N3CCC[C@H]3C(=O)N2)C(=O)CCSC[C@@H](C(=O)N[C@@H](CCCNC(=N)N)C(N)=O)NC(=O)C[C@H](CCCNC(=N)N)NC1=O` [FXII900 (with C-term Arg)] (H-[dR][dS]C[Phe(4-F)]RLPCHQL[β3hR]CR-NH2; linker 3-8-13 via TATA), the Ki amounted to 0.5 ± 0.15 nM at Mouse α-FXIIa and 0.34 ± 0.03 nM on human β-FXIIa (setting [1]).
Consider `CC(C)C[C@@H]1NC(=O)[C@H](CCC(N)=O)NC(=O)[C@H](Cc2c[nH]cn2)NC(=O)[C@@H]2CSCCC(=O)N3CN(CN(C3)C(=O)CCSC[C@H](NC(=O)[C@@H](CO)NC(=O)[C@H](N)CCCNC(=N)N)C(=O)N[C@@H](Cc3ccccc3)C(=O)N[C@@H](C)C(=O)N[C@@H](CC(C)C)C(=O)N3CCC[C@H]3C(=O)N2)C(=O)CCSC[C@@H](C(N)=O)NC(=O)[C@H](CCCNC(=N)N)NC1=O` [FXII901] (HELM PEPTIDE1{[dR].[dS].C.F.A.L.P.C.H.Q.L.R.C.[am]}|CHEM1{[O=C(CC[*:1])N1CN(C(=O)CC[*:2])CN(C(=O)CC[*:3])C1]}$PEPTIDE1,CHEM1,3:R3-1:R1|PEPTIDE1,CHEM1,8:R3-1:R2|PEPTIDE1,CHEM1,13:R3-1:R3$$$V2.0), for which, on human β-FXIIa (negative control peptide, read-out: Ki FXIIa), the Ki came to 39000 ± 14000 nM.
On to `CC(C)C[C@@H]1NC(=O)[C@H](CCC(N)=O)NC(=O)[C@H](CCCNC(=N)N)NC(=O)[C@@H]2CSCCC(=O)N3CN(CN(C3)C(=O)CCSC[C@H](NC(=O)[C@@H](N)CCCNC(=N)N)C(=O)N[C@@H](Cc3ccc(F)cc3)C(=O)N[C@@H](CCCNC(=N)N)C(=O)N[C@@H](CC(C)C)C(=O)N3CCC[C@H]3C(=O)N2)C(=O)CCSC[C@@H](C(=O)N[C@@H](CCCNC(=N)N)C(N)=O)NC(=O)[C@H](CCCNC(=N)N)NC1=O` [FXII800], for which the “Residual activity of human FXIIa” value on human β-FXIIa (inhibitor 0.12207 nM, 0.00012207 µM) is 86.6295% and 91.1755%; on human β-FXIIa (inhibitor 0.244141 nM, 0.000244141 µM), 82.4999% and 82.653%; at human β-FXIIa (inhibitor 0.488281 nM, 0.000488281 µM), 69.0437% and 70.79%; at human β-FXIIa (inhibitor 1.95312 nM, 0.00195312 µM), 33.1082% and 35.3323%; on human β-FXIIa (inhibitor 3.90625 nM, 0.00390625 µM), 19.4631% and 21.6747%; at human β-FXIIa (inhibitor 7.8125 nM, 0.0078125 µM), 10.6116% and 10.9279%. Also, the “Residual activity of human FXIIa” value on human β-FXIIa (inhibitor 15.625 nM, 0.015625 µM) is 6.273% and 6.117%; on human β-FXIIa (inhibitor 31.25 nM, 0.03125 µM) it was 3.754% and 3.106%; at human β-FXIIa (inhibitor 62.5 nM, 0.0625 µM), 2.455% and 1.836%; on human β-FXIIa (inhibitor 125 nM, 0.125 µM), 1.461% and 1.1009%; at human β-FXIIa (inhibitor 0.976562 / 0.976563 nM, 0.000976563 µM), 50.5477% and 54.5303%. Further, the remaining activity at 0.00012207 µM on human β-FXIIa (inhibitor 0.12207 nM, read-out: Residual activity of human FXIIa) stood at 94.2%. Further, the remaining activity at 0.000244141 µM at human β-FXIIa (inhibitor 0.244141 nM, read-out: Residual activity of human FXIIa) came to 87%. Further, the remaining activity at 0.000488281 µM at human β-FXIIa (inhibitor 0.488281 nM, read-out: Residual activity of human FXIIa) was found to be 70.3%. The remaining activity at 0.00195312 µM at human β-FXIIa (inhibitor 1.95312 nM, read-out: Residual activity of human FXIIa) came out at 31.8%. In addition, the remaining activity at 0.00390625 µM on human β-FXIIa (inhibitor 3.90625 nM, read-out: Residual activity of human FXIIa) was 16.9%. The remaining activity at 0.0078125 µM on human β-FXIIa (inhibitor 7.8125 nM, read-out: Residual activity of human FXIIa) worked out at 9.32%. Also, the remaining activity at 0.015625 µM at human β-FXIIa (inhibitor 15.625 nM, read-out: Residual activity of human FXIIa) is 6.19%. Besides, the remaining activity at 0.03125 µM at human β-FXIIa (inhibitor 31.25 nM, read-out: Residual activity of human FXIIa) is 2.96%. For the same molecule, at human β-FXIIa (inhibitor 62.5 nM, read-out: Residual activity of human FXIIa), the remaining activity at 0.0625 µM stood at 1.51%. For the same molecule, the remaining activity at 0.125 µM at human β-FXIIa (inhibitor 125 nM, read-out: Residual activity of human FXIIa) amounted to 1.19%. Also, the remaining activity at 0.000976563 µM on human β-FXIIa (inhibitor 0.976562 / 0.976563 nM, read-out: Residual activity of human FXIIa) was found to be 50.5%. The Ki at human β-FXIIa (setting [1]) was found to be 0.84 ± 0.03 nM.
